According to patent publication US12508271B2, “Prodrugs of 2-PMPA for healthy tissue protection during PSMA-targeted cancer imaging or radiotherapy” (The Johns Hopkins University, priority 2017, dated 2025):

How the values were obtained:
PSMA [1] = target: PSMA (Mus musculus, UniProt O35409); conditions: 2-PMPA 0.01 mg co-injection with 177Lu-PSMA I&T (100 MBq); cited from earlier work
PSMA [2] = target: PSMA (Homo sapiens, UniProt Q04609); conditions: 2-PMPA 0.01 mg co-injection with 177Lu-PSMA I&T (100 MBq); cited from earlier work
[3] = Pharmacokinetics/tissue distribution of 2-PMPA in C4-2 prostate cancer tumor-bearing NSG mice; format: in vivo; conditions: 2-PMPA administered directly, 3 mg/kg i.v.
Description: To generate a C4-2 in vivo model, 3×10^6 LNCaP-C4-2 cells were subcutaneously injected into the flanks of male NSG mice. When tumors grew to approximately 600-800 mm^3, tumors were excised, aseptically cut into 2-mm×2-mm pieces and frozen back viably (5% DMSO/95% FBS). Tumors were not passaged from mouse to mouse more than 4 times. For the current experiment, two vials of viably frozen explants were thawed at 37° C. Tumor explants were washed in RPMI without FCS and then surgically implanted in a subcutaneous pocket in male NSG mice. When tumors reached 600-800 mm^3, mice were euthanized, tumors excised aseptically, and cut into 2-mm×2-mm pieces prior to re-implantation into 40 mice. When tumors reached 500-700 mm^3, the pharmacokinetic experiment was performed. 2-PMPA (3 mg/kg, i.v.) or a molar equivalent of Tris-POC-2-PMPA (7.62 mg/kg, i.v.) were injected via tail vein after dissolution in vehicle (5% EtOH/10% Tween 80/85% 50 mM HEPES). Mice were then euthanized under isoflurane anesthesia 0.25, 0.5, 1, 3, or 6 hours later (n=3/group). Blood was collected by cardiac puncture into EDTA-lined tubes and stored on ice until plasma was isolated by centrifugation. Salivary glands, kidneys, and tumor were harvested and flash frozen on dry ice. All tissues were stored at −80° C. prior to bioanalysis.

[4] = cited from earlier work

PSMA (Mus musculus, UniProt O35409), sequence (O35409 whole entry): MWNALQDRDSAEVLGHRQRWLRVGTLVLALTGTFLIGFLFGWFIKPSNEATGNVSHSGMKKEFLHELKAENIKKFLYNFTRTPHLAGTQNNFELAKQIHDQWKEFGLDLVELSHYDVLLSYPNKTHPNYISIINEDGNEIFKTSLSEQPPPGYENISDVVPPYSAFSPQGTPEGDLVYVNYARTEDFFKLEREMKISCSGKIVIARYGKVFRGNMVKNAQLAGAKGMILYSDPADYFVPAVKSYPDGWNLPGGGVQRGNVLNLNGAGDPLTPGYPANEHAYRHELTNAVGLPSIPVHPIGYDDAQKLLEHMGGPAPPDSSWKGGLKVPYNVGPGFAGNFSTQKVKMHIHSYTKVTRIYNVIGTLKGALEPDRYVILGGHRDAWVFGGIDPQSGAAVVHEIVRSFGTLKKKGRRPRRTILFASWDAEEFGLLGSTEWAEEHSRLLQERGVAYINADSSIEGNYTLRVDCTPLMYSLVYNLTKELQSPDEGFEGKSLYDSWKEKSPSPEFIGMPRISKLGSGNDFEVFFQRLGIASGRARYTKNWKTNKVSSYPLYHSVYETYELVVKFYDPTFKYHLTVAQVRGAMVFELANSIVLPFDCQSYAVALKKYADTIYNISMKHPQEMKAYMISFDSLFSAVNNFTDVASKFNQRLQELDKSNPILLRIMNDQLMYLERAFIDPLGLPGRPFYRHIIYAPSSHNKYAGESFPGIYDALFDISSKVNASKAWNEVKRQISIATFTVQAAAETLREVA
PSMA (Homo sapiens, UniProt Q04609), sequence (Q04609 whole entry): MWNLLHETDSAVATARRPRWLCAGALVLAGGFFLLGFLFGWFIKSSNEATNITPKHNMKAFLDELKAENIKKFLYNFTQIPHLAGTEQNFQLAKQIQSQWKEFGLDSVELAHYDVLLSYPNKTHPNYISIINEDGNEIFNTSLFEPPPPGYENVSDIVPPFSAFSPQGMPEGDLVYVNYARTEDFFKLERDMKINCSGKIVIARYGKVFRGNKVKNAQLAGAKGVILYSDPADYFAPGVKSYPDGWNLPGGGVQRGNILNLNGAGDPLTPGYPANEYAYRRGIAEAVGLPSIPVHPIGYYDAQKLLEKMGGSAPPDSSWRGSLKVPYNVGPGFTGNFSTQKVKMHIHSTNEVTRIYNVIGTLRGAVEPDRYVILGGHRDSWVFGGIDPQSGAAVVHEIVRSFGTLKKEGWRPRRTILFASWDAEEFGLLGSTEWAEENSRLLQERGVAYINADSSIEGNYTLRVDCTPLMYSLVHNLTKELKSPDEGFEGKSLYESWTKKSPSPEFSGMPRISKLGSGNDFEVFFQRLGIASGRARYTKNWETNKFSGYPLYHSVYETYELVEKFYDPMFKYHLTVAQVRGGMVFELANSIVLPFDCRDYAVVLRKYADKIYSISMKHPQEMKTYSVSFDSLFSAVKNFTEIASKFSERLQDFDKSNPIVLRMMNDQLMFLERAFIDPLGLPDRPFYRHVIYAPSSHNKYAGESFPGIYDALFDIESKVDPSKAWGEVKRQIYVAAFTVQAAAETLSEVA

## O=C(O)CCC(CP(=O)(O)O)C(=O)O (stereo not shown) [Compound 2-PMPA, 2-(phosphonomethyl)pentanedioic acid]
PSMA [1]
  nephrotoxicity 3 months later: attenuated nephrotoxicity
  reduction of absorbed dose to the kidneys: 83%
PSMA [2]
  inhibition of tumor uptake of the radiotherapeutic: more than 50%
[3]
  2-PMPA kidney exposure, fold lower than achieved with TRIS-POC-2-PMPA delivery: 4 fold
  2-PMPA salivary gland exposure, fold lower than achieved with TRIS-POC-2-PMPA delivery: 10 fold
[4]; 2-PMPA administered as parent
  salivary gland penetration: little to no
[4]; in vivo, po
  oral availability: negligible
